Laboratory results: ChEMBL document CHEMBL6103669, “Is a Fungal Apocalypse Inevitable or Just a Hallucination? An Overview of the Antifungal Armamentarium Used in the Fight against Pathogenic Fungi” (ACS Med Chem Lett, 2025)
Converted amounts (≈) assume the structure as drawn.

Legend:
Candida tropicalis [1] = assay: Antifungal activity against Candida tropicalis 3890 assessed as reduction in fungal growth; type: functional
Candida tropicalis [2] = assay: Antifungal activity against Candida tropicalis 5008 assessed as reduction in fungal growth; type: functional
Cryptococcus neoformans [3] = assay: Antifungal activity against Cryptococcus neoformans H99; type: functional
Candida albicans [4] = assay: Antifungal activity against fluconazole-resistant Candida albicans 904 assessed as reduction in fungal growth by NCCLS method; type: functional
[5] = biological target: T1, Sterol 24-C-methyltransferase (Candida albicans (strain SC5314 / ATCC MYA-2876) (Yeast), UniProt O74198); assay: Inhibition of N-terminal His-tagged Candida albicans SC5314 Erg6 extracted from Escherichia coli BL21 (DE3) methyltransferase activity using zymosterol as substrate pre-incubated for 15 mins followed by substrate addition by liquid scintillation counter analysis
T1 sequence (O74198 whole entry): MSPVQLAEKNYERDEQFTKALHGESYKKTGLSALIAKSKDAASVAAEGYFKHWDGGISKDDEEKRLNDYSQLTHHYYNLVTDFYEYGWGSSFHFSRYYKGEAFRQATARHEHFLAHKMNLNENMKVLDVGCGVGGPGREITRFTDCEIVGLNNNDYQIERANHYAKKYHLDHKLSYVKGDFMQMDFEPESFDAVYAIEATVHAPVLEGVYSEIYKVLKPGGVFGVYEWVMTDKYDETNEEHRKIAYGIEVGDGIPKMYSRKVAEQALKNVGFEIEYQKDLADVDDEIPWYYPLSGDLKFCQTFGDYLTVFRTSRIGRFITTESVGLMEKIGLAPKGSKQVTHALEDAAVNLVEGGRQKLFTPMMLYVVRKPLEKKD

Cryptococcus neoformans [6] = assay: Antifungal activity against Cryptococcus neoformans H99 assessed as fungal growth inhibition measured after 48 hrs by resazurin assay; type: functional
Candida albicans [7] = assay: Antifungal activity against fluconazole-resistant Candida albicans 901 assessed as inhibition of fungal growth; type: functional
[8] = biological target: T1, Sterol 24-C-methyltransferase; assay: Inhibition of Candida albicans SC5314 Erg6

Compound `O=C(CCCCCCCOc1ccc(CN2CCN(CC(O)(Cn3cncn3)c3ccc(F)cc3F)CC2)cc1)NO` (centres undefined) has an MIC80 (Candida tropicalis [1]) of 0.5 µg/mL (≈ 0.852 µM), an MIC80 (Candida tropicalis [2]) of 0.5 µg/mL (≈ 0.852 µM) and an MIC80 (Cryptococcus neoformans [3]) of 0.5 µg/mL (≈ 0.852 µM).
For `COc1cc2c(cc1-c1c(C)noc1C)[nH]c1ncnc(NCCCCCCC(=O)NO)c12`, the MIC80 (Candida albicans [4]) was 0.5 µg/mL (≈ 1.1 µM) and the MIC80 (Cryptococcus neoformans [3]) was 8 µg/mL (≈ 17.7 µM).
For `Cc1c(-n2c(-c3ccc(Br)cc3)cs/c2=N\c2ccccc2)c(=O)n(-c2ccccc2)n1C`, the IC50 [5] was 0.58 µM.
`Clc1ccc(N/N=C(\c2ccccc2)c2ccccn2)nc1` gave an MIC50 (Cryptococcus neoformans [6]) of 0.5 µg/mL (≈ 1.62 µM) and an MIC50 (Candida albicans [7]) of 0.5 µg/mL (≈ 1.62 µM).
Work on `C=C(CC[C@@H](CO)[C@H]1CC[C@@]2(C)C3=C(CC[C@]12C)[C@@]1(C)CC[C@@H](OC(=O)C[C@@](C)(O)CC(=O)O)C(C)(C)[C@@H]1CC3)[C@H](C)C(=O)O` yielded an IC50 [8] of 11.6 µM.
